Values of other authors, collected in US20020131987A1, “METHOD FOR ENHANCING STABLE CELLULAR CREATINE CONCENTRATION” (priority 1997, published 2002).

Assays:
[1] = not given; remark: listed apart in the source
[2] = not given; remark: listed apart in the source
[3] = not given; remark: listed apart in the source
[4] = not given; remark: listed apart in the source

Structure (SMILES)	formation of creatinine in acid solution (acid solution)	time for conversion of creatine to creatinine (acidic aqueous solution)	decomposition in the alimentary tract ([1]; after oral administration, no appreciable increase in urinary urea or ammonia)	absorption from the alimentary tract ([1]; oral administration)	creatine lost from the cell ([2]; 70 kg male)	loss of creatine from skeletal muscle ([2]; human skeletal muscle)	formation of creatinine in aqueous solution (dissolved in an aqueous solution)	volume of alcohol in which one gram dissolves ([3]; alcohol)	volume of water in which one gram dissolves ([3]; water)	reaction to litmus [4]
CN(CC(=O)O)C(=N)N [creatine]	complete	a number of hours	not decomposed	completely absorbed	approximately 2 grams per day	about 3 % per day	–	–	–	–
CN(CC(=O)O)C(=N)N.O [creatine monohydrate]	–	–	–	–	–	–	creatinine is formed	about 9 liters	75 mL	neutral
